Measured values taken from ChEMBL document CHEMBL1201862, “PubChem BioAssay data set” (2004).
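Dose response: 5 concentrations. Exposure: 48 h. Format: 96-well plates. Endpoint: linear interpolation; highest concentration if not reached. GI50 is the concentration that inhibits growth by half.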 Active and inactive are the calls of the source. Rule as the data show it: active = GI50 up to about 1.1 µM and inactive = higher.

Assays:
Assay in all cases: NCI anticancer screen, dose series, 48 h
CCRF-CEM = test system: CCRF-CEM
UO-31 = test system: UO-31
OVCAR-5 = test system: OVCAR-5
TK-10 = test system: TK-10
SK-MEL-2 = test system: SK-MEL-2
SF-295 = test system: SF-295
HOP-62 = test system: HOP-62
ACHN = test system: ACHN
CAKI-1 = test system: CAKI-1
A498 = test system: A498
IGROV-1 = test system: IGROV-1
NCI-H460 = test system: NCI-H460
SF-539 = test system: SF-539
Malme-3M = test system: Malme-3M
SK-OV-3 = test system: SK-OV-3
HT-29 = test system: HT-29
786-0 = test system: 786-0
COLO 205 = test system: COLO 205
NCI-H522 = test system: NCI-H522
SF-268 = test system: SF-268

Measured: GI50

CCc1cccc(C)c1NC(C)=O
inactive: CCRF-CEM > 100 µM | UO-31 > 100 µM | OVCAR-5 > 100 µM | TK-10 > 100 µM | SK-MEL-2 > 100 µM | SF-295 > 100 µM | HOP-62 > 100 µM | ACHN > 100 µM | CAKI-1 > 100 µM | A498 > 100 µM | IGROV-1 > 100 µM | NCI-H460 > 100 µM | SF-539 > 100 µM | Malme-3M > 100 µM | SK-OV-3 > 100 µM | HT-29 > 100 µM | 786-0 > 100 µM

CCCCCCCCCCCCCCCCOCC(CP(=O)([O-])OCC[n+]1ccccc1)OC (stereo not given)
inactive: COLO 205 6.46 µM | CCRF-CEM 8.2 µM | UO-31 9.4 µM | TK-10 2.9 µM | NCI-H522 17.3 µM | SK-MEL-2 16.5 µM | SF-295 4.38 µM | HOP-62 11.6 µM | SF-268 7.1 µM | CAKI-1 10.4 µM | A498 11.3 µM | IGROV-1 3.84 µM | SF-539 14.6 µM | Malme-3M 17.8 µM | SK-OV-3 17.7 µM | HT-29 4.21 µM | 786-0 14 µM

C/C=C1/CN2CCC34c5ccccc5N(C)C23C2CC1C4(C(=O)OC)C(OC(C)=O)O2 (stereo not given)
inactive: COLO 205 > 100 µM | CCRF-CEM > 100 µM | UO-31 > 100 µM | OVCAR-5 > 100 µM | TK-10 > 100 µM | NCI-H522 > 100 µM | SK-MEL-2 > 100 µM | SF-295 > 100 µM | HOP-62 > 100 µM | ACHN > 100 µM | SF-268 > 100 µM | CAKI-1 > 100 µM | A498 > 100 µM | IGROV-1 > 100 µM | NCI-H460 > 100 µM | SF-539 > 100 µM | SK-OV-3 > 100 µM | HT-29 > 100 µM | 786-0 > 100 µM

COc1cc2c3c(c1O)-c1c(ccc(OC)c1OC)CC3N(C)CC2 (stereo not given)
inactive: COLO 205 > 100 µM | CCRF-CEM 91.4 µM | UO-31 > 100 µM | OVCAR-5 > 100 µM | TK-10 > 100 µM | NCI-H522 > 100 µM | SK-MEL-2 > 100 µM | SF-295 > 100 µM | ACHN > 100 µM | SF-268 > 100 µM | CAKI-1 > 100 µM | A498 > 100 µM | IGROV-1 > 100 µM | NCI-H460 > 100 µM | SF-539 > 100 µM | SK-OV-3 > 100 µM | HT-29 77.4 µM | 786-0 > 100 µM

OCC(O)COCn1cc(Cn2ncc3c(NCc4ccccc4)ncnc32)nn1 (stereo not given)
inactive: COLO 205 > 100 µM | CCRF-CEM > 100 µM | UO-31 > 100 µM | OVCAR-5 > 100 µM | TK-10 > 100 µM | NCI-H522 18.7 µM | SK-MEL-2 > 100 µM | SF-295 > 100 µM | HOP-62 > 100 µM | ACHN > 100 µM | SF-268 17.7 µM | CAKI-1 > 100 µM | A498 > 100 µM | IGROV-1 > 100 µM | SF-539 > 100 µM | SK-OV-3 > 100 µM | HT-29 > 100 µM | 786-0 > 100 µM

CON(C)C(=O)C1CCCO1 (stereo not given)
inactive: COLO 205 > 100 µM | CCRF-CEM > 100 µM | UO-31 > 100 µM | OVCAR-5 > 100 µM | TK-10 > 100 µM | NCI-H522 > 100 µM | SK-MEL-2 > 100 µM | SF-295 > 100 µM | HOP-62 > 100 µM | ACHN > 100 µM | SF-268 > 100 µM | CAKI-1 > 100 µM | A498 > 100 µM | IGROV-1 > 100 µM | NCI-H460 > 100 µM | SF-539 > 100 µM | SK-OV-3 > 100 µM | HT-29 > 100 µM | 786-0 > 100 µM

O=C(O)C1=Cc2cccc3cccc(c23)C1=O
inactive: COLO 205 > 100 µM | CCRF-CEM > 100 µM | UO-31 81.8 µM | OVCAR-5 > 100 µM | TK-10 > 100 µM | NCI-H522 > 100 µM | SK-MEL-2 > 100 µM | SF-295 > 100 µM | HOP-62 > 100 µM | ACHN > 100 µM | SF-268 > 100 µM | CAKI-1 > 100 µM | A498 24.3 µM | IGROV-1 > 100 µM | NCI-H460 > 100 µM | Malme-3M > 100 µM | SK-OV-3 > 100 µM | HT-29 > 100 µM | 786-0 > 100 µM

c1ccc(C2=NCCc3cc4c(cc32)OCO4)cc1
inactive: COLO 205 > 100 µM | CCRF-CEM > 10 µM | OVCAR-5 > 100 µM | TK-10 > 100 µM | NCI-H522 > 100 µM | SK-MEL-2 > 100 µM | SF-295 > 100 µM | HOP-62 > 100 µM | SF-268 > 100 µM | CAKI-1 > 100 µM | A498 > 100 µM | IGROV-1 > 100 µM | SF-539 > 100 µM | Malme-3M > 100 µM | SK-OV-3 > 100 µM | 786-0 > 100 µM

COc1ccc(Cc2c(N)[nH]c(=O)[nH]c2=O)cc1
inactive: COLO 205 > 100 µM | UO-31 90.2 µM | OVCAR-5 > 100 µM | TK-10 > 100 µM | NCI-H522 > 100 µM | SK-MEL-2 > 100 µM | SF-295 > 100 µM | HOP-62 > 100 µM | ACHN > 100 µM | SF-268 > 100 µM | CAKI-1 > 100 µM | A498 > 100 µM | IGROV-1 > 100 µM | NCI-H460 > 100 µM | SF-539 > 100 µM | Malme-3M > 100 µM | SK-OV-3 > 100 µM | HT-29 > 100 µM | 786-0 > 100 µM

Cc1cccc2c1CC1(Cc3c(C)cccc3C1=O)C2=O
inactive: CCRF-CEM > 100 µM | UO-31 > 100 µM | OVCAR-5 > 100 µM | TK-10 > 100 µM | NCI-H522 > 100 µM | SK-MEL-2 > 100 µM | SF-295 > 100 µM | HOP-62 > 100 µM | ACHN > 100 µM | SF-268 > 100 µM | CAKI-1 > 100 µM | A498 > 100 µM | IGROV-1 > 100 µM | NCI-H460 > 100 µM | SF-539 > 100 µM | Malme-3M > 100 µM | SK-OV-3 > 100 µM | HT-29 > 100 µM | 786-0 > 100 µM

COC(=O)c1nc(-c2ccc(Cl)c(Cl)c2)nc2ccccc12
inactive: CCRF-CEM > 100 µM | UO-31 43.4 µM | OVCAR-5 > 100 µM | TK-10 34.6 µM | NCI-H522 > 100 µM | SK-MEL-2 71.8 µM | SF-295 12 µM | HOP-62 14.3 µM | ACHN 50.5 µM | SF-268 6.81 µM | CAKI-1 44.3 µM | A498 27.4 µM | IGROV-1 48.9 µM | NCI-H460 > 34 µM | SF-539 24.2 µM | Malme-3M > 100 µM | SK-OV-3 9.91 µM | HT-29 > 100 µM | 786-0 21.6 µM
